Results: the NIST ThermoML archive (doi:10.1021/acs.jced.8b00930)
Numbers after ± are expanded uncertainties.

Details: Liquid, Capillary tube (Ostwald / Ubbelohde) method

CCCCCCCCCCCCCCCC [hexadecane]
Details	viscosity [mPa·s]
322.7 K, 1940 kPa	1.885 ± 0.066
323.7 K, 970 kPa	1.857 ± 0.063
323.7 K, 3000 kPa	1.904 ± 0.065
323.8 K, 1980 kPa	1.878 ± 0.066
323.8 K, 3910 kPa	1.925 ± 0.066
372.7 K, 990 kPa	0.909 ± 0.031
372.7 K, 1960 kPa	0.922 ± 0.083
372.8 K, 2970 kPa	0.929 ± 0.031
372.8 K, 3950 kPa	0.947 ± 0.15
373.9 K, 980 kPa	0.896 ± 0.031
373.9 K, 2000 kPa	0.909 ± 0.083
373.9 K, 2980 kPa	0.915 ± 0.031
373.9 K, 3900 kPa	0.936 ± 0.17
422.9 K, 1990 kPa	0.554 ± 0.019
422.9 K, 2970 kPa	0.557 ± 0.019
422.9 K, 3840 kPa	0.568 ± 0.02
471.9 K, 1000 kPa	0.358 ± 0.013
472 K, 2010 kPa	0.363 ± 0.012
472.1 K, 2910 kPa	0.371 ± 0.013
472.1 K, 3870 kPa	0.374 ± 0.015
473.7 K, 3990 kPa	0.375 ± 0.02
521.9 K, 970 kPa	0.245 ± 0.008
521.9 K, 1960 kPa	0.254 ± 0.009
521.9 K, 2950 kPa	0.26 ± 0.009
522 K, 3830 kPa	0.267 ± 0.009
572.1 K, 2930 kPa	0.192 ± 0.007
572.2 K, 2000 kPa	0.187 ± 0.006
572.2 K, 3850 kPa	0.196 ± 0.007
621.9 K, 2010 kPa	0.131 ± 0.005
622 K, 2890 kPa	0.137 ± 0.005
622.1 K, 3820 kPa	0.142 ± 0.005
623.2 K, 3990 kPa	0.143 ± 0.005
672.6 K, 3990 kPa	0.104 ± 0.004
673.2 K, 2000 kPa	0.091 ± 0.003
673.6 K, 3000 kPa	0.097 ± 0.003
